# Experimental data: patent US11053204B2, “Pyrimidinyloxy benzene derivatives as herbicides” (FMC Corporation, priority 2015, dated 2021)
# How the values were obtained:
# Assay type in all cases: in vivo
# [1] = test system: field violet (Viola arvensis); assay: Test C postemergence, plant response rating; conditions: for Field Violet plant response rating: scale 0 to 100 (0 no effect, 100 complete control)
# Procedure, shortened: (§1)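 Visual injury score, 0 = no effect, 100 = complete control, assigned against untreated controls after 13 to 15 d in the greenhouse. Compounds were applied in a surfactant-containing non-phytotoxic solvent mix, preemergence to seeded loam/sand or silt loam soil, or postemergence to 1- to 4-leaf plants (2 to 18 cm).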
# [2] = test system: field poppy (Papaver rhoeas); assay: Test C postemergence, plant response rating; conditions: for Field Poppy plant response rating: scale 0 to 100 (0 no effect, 100 complete control)
# Procedure, shortened: as §1
# [3] = test system: surinam grass (Brachiaria decumbens); assay: Test C postemergence, plant response rating
# Procedure, shortened: as §1
# [4] = test system: wild poinsettia (Euphorbia heterophylla); assay: Test C postemergence, plant response rating; conditions: for Poinsettia, Wild plant response rating: scale 0 to 100 (0 no effect, 100 complete control)
# Procedure, shortened: as §1
# [5] = test system: nightshade (eastern black nightshade, Solanum ptycanthum); assay: Test C postemergence, plant response rating; conditions: for Nightshade plant response rating: scale 0 to 100 (0 no effect, 100 complete control)
# Procedure, shortened: as §1
# [6] = test system: pigweed, palmer (palmer pigweed, Amaranthus palmeri); assay: Test C postemergence, plant response rating; conditions: for Pigweed, Palmer plant response rating: scale 0 to 100 (0 no effect, 100 complete control)
# Procedure, shortened: as §1
# [7] = test system: buckwheat, wild (wild buckwheat, Polygonum convolvulus); assay: Test C postemergence, plant response rating; conditions: for Buckwheat, Wild plant response rating: scale 0 to 100 (0 no effect, 100 complete control)
# Procedure, shortened: as §1
# [8] = test system: wild mustard (Sinapis arvensis); assay: Test C postemergence, plant response rating; conditions: for Mustard, Wild plant response rating: scale 0 to 100 (0 no effect, 100 complete control)
# Procedure, shortened: as §1
# [9] = test system: Canada thistle (Cirsium arvense); assay: Test C postemergence, plant response rating; conditions: for Canada Thistle plant response rating: scale 0 to 100 (0 no effect, 100 complete control)
# Procedure, shortened: as §1
# [10] = test system: geranium, cutleaf (cutleaf geranium, Geranium dissectum); assay: Test C postemergence, plant response rating; conditions: for Geranium, Cutleaf plant response rating: scale 0 to 100 (0 no effect, 100 complete control)
# Procedure, shortened: as §1
# [11] = test system: speedwell (bird's-eye speedwell, Veronica persica); assay: Test C postemergence, plant response rating; conditions: for Speedwell plant response rating: scale 0 to 100 (0 no effect, 100 complete control)
# Procedure, shortened: as §1
# [12] = test system: windgrass (Apera spica-venti); assay: Test C postemergence, plant response rating
# Procedure, shortened: as §1
# [13] = test system: johnsongrass (Sorghum halepense); assay: Test C postemergence, plant response rating; conditions: for Johnsongrass plant response rating: scale 0 to 100 (0 no effect, 100 complete control)
# Procedure, shortened: as §1
# [14] = test system: johnsongrass (Sorghum halepense); assay: Test C preemergence, plant response rating
# [15] = test system: wild poinsettia (Euphorbia heterophylla); assay: Test C preemergence, plant response rating
# [16] = test system: nightshade (eastern black nightshade, Solanum ptycanthum); assay: Test C preemergence, plant response rating
# [17] = test system: windgrass (Apera spica-venti); assay: Test C preemergence, plant response rating
# [18] = test system: pigweed, palmer (palmer pigweed, Amaranthus palmeri); assay: Test C preemergence, plant response rating
# [19] = test system: barnyardgrass (Echinochloa crus-galli); assay: Test C preemergence, plant response rating; conditions: Echinochloa crus-galli, pre-emergence, Preemergence
# [20] = 125 g ai/ha, scale 0 to 100 (0 no effect, 100 complete control)
compound,measurement,setting,value
"O=C(CCC(F)(F)F)c1c(Cl)cccc1Oc1ncc(Cl)cn1 [Compound 107, 1-[2-chloro-6-[(5-chloro-2-pyrimidinyl)oxy]phenyl]-4,4,4-trifluoro-1-butanone]","Plant response rating, Field Violet","[1]; 16 g ai/ha, scale of 0 to 100",95
same,"Plant response rating, Field Violet","[1]; 31 g ai/ha, scale 0 to 100",98
same,Field Violet plant response rating,[1]; 62 g ai/ha,98
same,Field Violet plant response rating,[1]; 125 g ai/ha,100
same,"Plant response rating, Field Poppy","[2]; 16 g ai/ha, scale of 0 to 100",80
same,"Plant response rating, Field Poppy","[2]; 31 g ai/ha, scale 0 to 100",98
same,Field Poppy plant response rating,[2]; 62 g ai/ha,98
same,Field Poppy plant response rating,[2]; 125 g ai/ha,100
same,"Plant response rating, Surinam Grass","[3]; 16 g ai/ha, scale of 0 to 100",10
same,"Plant response rating, Surinam Grass","[3]; 31 g ai/ha, scale 0 to 100",25
same,Surinam Grass plant response rating,[3]; [20],35
same,"Plant response rating, Poinsettia, Wild","[4]; 16 g ai/ha, scale of 0 to 100",70
same,"Plant response rating, Poinsettia, Wild","[4]; 31 g ai/ha, scale 0 to 100",75
same,"Poinsettia, Wild plant response rating",[4]; 62 g ai/ha,90
same,"Poinsettia, Wild plant response rating",[4]; 125 g ai/ha,90
same,"Plant response rating, Nightshade","[5]; 16 g ai/ha, scale of 0 to 100",75
same,"Plant response rating, Nightshade","[5]; 31 g ai/ha, scale 0 to 100",90
same,Nightshade plant response rating,[5]; 62 g ai/ha,98
same,Nightshade plant response rating,[5]; 125 g ai/ha,100
same,"Plant response rating, Pigweed, Palmer","[6]; 16 g ai/ha, scale of 0 to 100",90
same,"Plant response rating, Pigweed, Palmer","[6]; 31 g ai/ha, scale 0 to 100",95
same,"Pigweed, Palmer plant response rating",[6]; 62 g ai/ha,100
same,"Pigweed, Palmer plant response rating",[6]; 125 g ai/ha,100
same,"Plant response rating, Buckwheat, Wild","[7]; 16 g ai/ha, scale of 0 to 100",45
same,"Plant response rating, Buckwheat, Wild","[7]; 31 g ai/ha, scale 0 to 100",75
same,"Buckwheat, Wild plant response rating",[7]; 62 g ai/ha,75
same,"Buckwheat, Wild plant response rating",[7]; 125 g ai/ha,100
same,"Plant response rating, Mustard, Wild","[8]; 16 g ai/ha, scale of 0 to 100",85
same,"Plant response rating, Mustard, Wild","[8]; 31 g ai/ha, scale 0 to 100",90
same,"Mustard, Wild plant response rating",[8]; 62 g ai/ha,95
same,"Mustard, Wild plant response rating",[8]; 125 g ai/ha,100
same,"Plant response rating, Canada Thistle","[9]; 16 g ai/ha, scale of 0 to 100",80
same,"Plant response rating, Canada Thistle","[9]; 31 g ai/ha, scale 0 to 100",85
same,Canada Thistle plant response rating,[9]; 62 g ai/ha,90
same,Canada Thistle plant response rating,[9]; 125 g ai/ha,90
same,"Plant response rating, Geranium, Cutleaf","[10]; 16 g ai/ha, scale of 0 to 100",25
same,"Plant response rating, Geranium, Cutleaf","[10]; 31 g ai/ha, scale 0 to 100",35
same,"Geranium, Cutleaf plant response rating",[10]; 62 g ai/ha,60
same,"Geranium, Cutleaf plant response rating",[10]; 125 g ai/ha,75
same,"Plant response rating, Speedwell","[11]; 16 g ai/ha, scale of 0 to 100",100
same,"Plant response rating, Speedwell","[11]; 31 g ai/ha, scale 0 to 100",100
same,Speedwell plant response rating,[11]; 62 g ai/ha,100
same,Speedwell plant response rating,[11]; 125 g ai/ha,100
same,"Plant response rating, Windgrass","[12]; 16 g ai/ha, scale of 0 to 100",5
same,"Plant response rating, Windgrass","[12]; 31 g ai/ha, scale 0 to 100",15
same,Windgrass plant response rating,[12]; [20],50
same,"Plant response rating, Johnsongrass","[13]; 16 g ai/ha, scale of 0 to 100",20
same,"Plant response rating, Johnsongrass","[13]; 31 g ai/ha, scale 0 to 100",10
same,Johnsongrass plant response rating,[13]; 62 g ai/ha,35
same,Johnsongrass plant response rating,[13]; 125 g ai/ha,98
same,"Plant response rating, Johnsongrass","[14]; 31 g ai/ha, scale 0 to 100",30
same,"Plant response rating, Johnsongrass","[14]; 62 g ai/ha, scale 0 to 100",70
same,"Plant response rating, Johnsongrass","[14]; 125 g ai/ha, scale of 0 to 100",80
same,"Plant response rating, Poinsettia, Wild","[15]; 31 g ai/ha, scale 0 to 100",10
same,"Plant response rating, Poinsettia, Wild","[15]; 62 g ai/ha, scale 0 to 100",40
same,"Plant response rating, Poinsettia, Wild","[15]; 125 g ai/ha, scale of 0 to 100",70
same,"Plant response rating, Nightshade","[16]; 31 g ai/ha, scale 0 to 100",60
same,"Plant response rating, Nightshade","[16]; 62 g ai/ha, scale 0 to 100",80
same,"Plant response rating, Nightshade","[16]; 125 g ai/ha, scale of 0 to 100",90
same,"Plant response rating, Windgrass","[17]; 31 g ai/ha, scale 0 to 100",100
same,"Plant response rating, Windgrass","[17]; 62 g ai/ha, scale 0 to 100",100
same,"Plant response rating, Windgrass","[17]; 125 g ai/ha, scale of 0 to 100",100
same,"Plant response rating, Pigweed, Palmer","[18]; 31 g ai/ha, scale 0 to 100",100
same,"Plant response rating, Pigweed, Palmer","[18]; 62 g ai/ha, scale 0 to 100",100
same,"Plant response rating, Pigweed, Palmer","[18]; 125 g ai/ha, scale of 0 to 100",100
same,pest or weed control at 125 g/ha,"[19]; 125 g ai/ha, scale of 0 to 100",100%
same,pest or weed control at 16 g/ha,"[19]; 16 g ai/ha, scale 0 to 100",65%
same,pest or weed control at 31 g/ha,"[19]; 31 g ai/ha, scale 0 to 100",85%
same,pest or weed control at 62 g/ha,"[19]; 62 g ai/ha, scale 0 to 100",100%
